Reference: ChEMBL document CHEMBL1142584, “Insect antifeedants from Croton jatrophoides: structures of zumketol, zumsenin, and zumsenol” (2005)

Assays:
Assay type in all cases: functional
[1] = system: Pectinophora gossypiella; assay: Antifeedant activity against Pectinophora gossypiella second-instar larvae assessed as 50 % protection after 48 hrs
[2] = system: Pectinophora gossypiella; assay: Antifeedant activity against Pectinophora gossypiella second-instar larvae assessed as 90 % protection after 48 hrs
[3] = system: Spodoptera frugiperda; assay: Antifeedant activity against Spodoptera frugiperda second-instar larvae assessed as 90 % protection after 48 hrs
[4] = system: Spodoptera frugiperda; assay: Antifeedant activity against Spodoptera frugiperda second-instar larvae assessed as 50 % protection after 48 hrs

Compound: CC(=O)O[C@H]1[C@H](OC(C)=O)[C@]2(C)C(=CC[C@H]2c2ccoc2)[C@]2(C)C(=O)C[C@H]3C(C)(C)O[C@H]4C[C@H](O)C(=O)[C@]43[C@@H]12 [ZUMKETOL]
- Activity [1]: 0.5 µg/mL
- Activity [2]: 2 µg/mL
- Activity [3]: 16 µg/mL
- Activity [4]: 3 µg/mL
